Eight compounds from PubChem BioAssay (NCI) can be followed below.

SMILES strings stand for the structures. Values joined by “and” are separate entries in the source; they are usually repeats but may differ in a detail not shown here. Equal entries are not always repeated.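 Exposure lasted 48 hours, with cells grown in 96-well plates and compounds tested at five concentrations. At the GI50, growth is halved. TGI denotes the concentration required for complete inhibition of growth.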 Where only a bound is given, the exact number is not on record here.

What all share (experiment): inhibition of tumour cell growth, NCI panel, 48 h
The subject of assay [1] is OVCAR-4 ovarian.
Assay [2] deals with HOP-92 NSCLC.
Assay [3] relates to SF-295 CNS.
In assay [4] the test system is OVCAR-5 ovarian.
Assay [5] has as its system SK-MEL-5 melanoma.
Assay [6] has as its system SNB-75 CNS.
Assay [7] concerns UO-31 renal.
The subject of assay [8] is SW-620 colon.
Assay [9] relates to MOLT-4 leukemia.

For the compound `NCCCOc1cc2ccccc2cc1C(=O)Nc1ccc(Cl)cc1OC(=O)c1cc2ccccc2cc1OCCCN`, the GI50 in [1] is 0.146 µM; in assay [2] it was 1.64 µM; in assay [3] it was 0.516 µM; in assay [4], 1 µM; in [5] it was 1.23 µM; in assay [6], 0.119 µM. Also, the GI50 in [7] was 0.179 µM; in assay [8], 0.181 µM; in [9], 0.468 µM. For the same compound, the TGI in assay [1] was found to be 0.306 µM; in assay [2] it was 3.71 µM; in [3], 1.44 µM; in assay [4], 2.47 µM; in assay [5] it was 2.49 µM; in assay [6], 0.859 µM. The TGI in [7] worked out at 0.433 µM; in assay [8], 0.345 µM; in assay [9], 3.66 µM.
In the case of `CNCC/C=C1\c2cc3c(cc2-c2c1c1cc(OC)c(OC)cc1c(=O)n2C)OCO3`, the GI50 was 6.72 µM in assay [1]; 0.301 µM in assay [2]; 0.0811 µM in assay [3]; 4.51 µM in assay [4]; 0.548 µM in assay [5]; 3.26 µM in [6]. The GI50 is 0.548 µM in [7], under 0.0142 µM in assay [8] and under 0.01 µM in assay [9]. Besides, the TGI in assay [1] is 44.8 µM; in assay [2] it was 2.74 µM; in assay [3], 15.6 µM; in assay [4], 27.4 µM; in [5], 2.89 µM; in assay [6] it was 33.8 µM. Besides, the TGI in assay [7] was over 100 µM; in [8] it was 16.4 µM.
With `COc1ccc(/C(C)=N/NC(=O)CSc2nc3ccccc3c(=O)n2CCc2ccc(S(N)(=O)=O)cc2)cc1`, the GI50 was 1.77 µM in assay [1]; 1.89 µM in [2]; 1.8 µM in assay [3]; 1.61 µM in assay [4]; 1.64 µM in assay [5]; 1.81 µM in assay [6]. Also, the GI50 in assay [7] is 1.56 µM; in [8], 2.28 µM; in assay [9], 4.2 µM. Also, the TGI in assay [1] came out at 3.52 µM; in assay [2], 4 µM; in assay [3], 3.86 µM; in assay [4], 3.23 µM; in [5], 3.06 µM; in assay [6], 4.26 µM. The TGI in [7] was determined as 3.28 µM; in assay [8], 5.01 µM; in [9] it was 84.2 µM.
For `O=C1CC[C@H](N2Cc3c(OCc4ccc(CN5CCOCC5)cc4)cccc3C2=O)C(=O)N1`, the GI50 in assay [1], in assay [2], in assay [3], in assay [4], in assay [5] and in assay [6] was over 100 µM each time. Also, the GI50 in [7], in [8] and in assay [9] was over 100 µM throughout. Besides, the TGI in assay [1], in [2], in [3], in [4], in assay [5] and in [6] was over 100 µM throughout. Moreover, the TGI in assay [7], in assay [8] and in assay [9] was over 100 µM in each case.
Take `CC1=C(/C=C/C(=O)CC(=O)/C=C/C2=C(C)CCCC2(C)C)C(C)(C)CCC1`: the GI50 was 21.7 µM in assay [1]; 28 µM in assay [2]; 15.6 µM in assay [3]; 77 µM in assay [4]; 22.1 µM in assay [5]; 49.6 µM in assay [6]. For the same compound, the GI50 in assay [7] was 26.8 µM; in [8], 25.7 µM; in assay [9], 6.51 µM. For the same compound, the TGI in assay [1] is over 100 µM; in assay [2] it was over 100 µM; in assay [3], 54.4 µM; in assay [4], over 100 µM; in assay [5] it was 91.8 µM; in assay [6], over 100 µM. For the same compound, the results for the TGI in assay [7], in assay [8] and in [9] were over 100 µM, over 100 µM and 32.6 µM, respectively.
Regarding `O=C(NCCc1ccccc1)Nc1ccc2cc3ccc(NC(=O)NCCc4ccccc4)cc3nc2c1`, the GI50 in [1] is 1.48 µM; in [2], 1.47 µM; in [3], 1.94 µM; in assay [4] it was 2.03 µM; in assay [5] it was 1.5 µM; in assay [6] it was 1.36 µM. The GI50 in [7] was over 100 µM; in assay [8], 0.346 µM; in [9], 0.258 µM. Further, the TGI in assay [1] was 3.48 µM; in assay [2] it was 3 µM; in assay [3], 4.79 µM; in assay [4] it was 5.7 µM; in assay [5], 3 µM; in [6], 3.21 µM. Besides, the TGI in [7] was over 100 µM; in assay [8], 1.31 µM; in assay [9], 0.697 µM.
Turning to `CN1CCN(c2ccc(OC(F)(F)F)c(Nc3ncc4c(n3)-c3c(c(C(N)=O)nn3CCO)CC4)c2)CC1`, the GI50 was 6.92 µM and 1.39 µM in [1]; 0.545 µM and 0.242 µM in [2]; 0.0575 µM and 0.244 µM in assay [3]; 0.055 µM and 0.0577 µM in assay [4]; 0.106 µM and 0.309 µM in assay [5]; 0.0582 µM and 0.145 µM in [6]. In addition, the GI50 in assay [7] is 2.88 µM and 2.28 µM; in [8] it was 0.0273 µM and 0.0316 µM; in [9], 0.0349 µM and 0.0615 µM. Moreover, the TGI in assay [1] is 41.2 µM and > 10 µM; in assay [2], 14.3 µM and > 3.62 µM; in [3], 18.6 µM and > 10 µM; in assay [4], 51.8 µM and > 10 µM; in assay [5], 16.7 µM and > 10 µM; in [6] it was 11.7 µM and 1.49 µM. In addition, the TGI in assay [7] is 38.2 µM and > 9.18 µM; in assay [8], over 84.3 µM; in assay [9], 18.5 µM and > 10 µM.
Consider `C/C=C/C/C=C/[C@H](C)C[C@H](O)[C@@H]1C[C@@H]2O[C@H]2/C=C/[C@@H]2OC(C)(C)O[C@H]2/C=C/C[C@H](C)CC(=O)O1`, for which the GI50 in [1] is 9.9 µM; in [2], 6.71 µM; in assay [3], 6.06 µM; in [4] it was 73.8 µM; in assay [5], 4.39 µM; in assay [6] it was 24.6 µM. The GI50 was 3.01 µM in assay [7], 22.7 µM in assay [8] and 3.94 µM in [9]. The TGI in assay [1] is over 100 µM; in [2] it was 91.6 µM; in assay [3], 60.8 µM; in assay [4], over 100 µM; in assay [5], 44 µM; in [6] it was over 100 µM. In addition, the TGI was 18.7 µM in assay [7], over 100 µM in [8] and 37.4 µM in assay [9].
